The assay can be described thus: Inhibition of classical pathway of the complement system. It counts as functional, Homo sapiens.

The molecule `CO[C@H]1O[C@@H](C(O)CO)/C(=C/c2ccc(CO)o2)C1=O` (stereo partly drawn) [PHELLINUSFURAN A] displayed an IC50 of 33.6 µM.
The value for `CO[C@H]1O[C@H](C(O)CO)/C(=C/c2ccc(CO)o2)C1=O` (stereo partly drawn) [PHELLINUSFURAN B] was 33.7 µM.
The molecule `O=C(/C=C/c1ccc(O)c(O)c1)O[C@H](Cc1ccc(O)c(O)c1)C(=O)O` [ROSMARINIC ACID] registered an IC50 of 180 µM.

Broadly, the IC50 is the concentration at which inhibition is half-maximal. The low end stands for inhibition by little substance, the high end for a need for much substance.

The record behind these values is ChEMBL document CHEMBL1147817, “Two novel furan derivatives from Phellinus linteus with anti-complement activity” (Bioorg Med Chem Lett, 2006).
